Structures can show the parent of a compound that is named as a salt.
Columns and labels:
[1] = prior art compounds, cited from earlier work
in vivo = test: in vivo
From the text: [formula] a=ethanolamine salt of 1-hydroxy-4,6-dimethyl-2-pyridone b=zinc salt of 1-hydroxy-4,6-dimethyl-2-pyridone c=zinc salt of 1-hydroxy-4-methyl-6-(2,4,4-trimethyl-pentyl)2-pyridone d=ethanolamine salt of 1-hydroxy-4-methyl-6-cyclohexyl-2-pyridone, administered in starch mucilage e=zinc salt of 1-hydroxy-4-methyl-6-cyclohexyl-2-pyridoneand [formula]

dandruff = conditions: half-side washing repeated over several weeks at determined intervals
skin = conditions: J. Soc. Cosmet. Chem. 23 (1972), pages 100, 112; cited from earlier work

On1ccccc1=S [1-hydroxy-2-pyridine-thione]
stability to heat [1]: sensitive to heat
stability to light [1]: not stable to light

Cc1cc(C)n(O)c(=O)c1 [a, ethanolamine salt of 1-hydroxy-4,6-dimethyl-2-pyridone]
LD50 (in vivo; in vivo): > 4480 mg/kg

Cc1cc(C)n([O-])c(=O)c1.Cc1cc(C)n([O-])c(=O)c1.[Zn+2] [b, zinc salt of 1-hydroxy-4,6-dimethyl-2-pyridone]
LD50 (in vivo; species and route not given): more than 6400 mg/kg

Cc1cc(CC(C)CC(C)(C)C)n([O-])c(=O)c1.Cc1cc(CC(C)CC(C)(C)C)n([O-])c(=O)c1.[Zn+2] (stereo not drawn) [c, zinc salt of 1-hydroxy-4-methyl-6-(2,4,4-trimethyl-pentyl)2-pyridone]
LD50 (in vivo; species and route not given): more than 6400 mg/kg

Cc1cc(C2CCCCC2)n(O)c(=O)c1 [d, ethanolamine salt of 1-hydroxy-4-methyl-6-cyclohexyl-2-pyridone]
LD50 (in vivo; in vivo): 5500 mg/kg

Cc1cc(C2CCCCC2)n([O-])c(=O)c1.Cc1cc(C2CCCCC2)n([O-])c(=O)c1.[Zn+2] [e, zinc salt of 1-hydroxy-4-methyl-6-cyclohexyl-2-pyridone]
LD50 (in vivo; species and route not given): more than 6400 mg/kg

[O-]n1ccccc1=S.[O-]n1ccccc1=S.[Zn+2] [g, zinc salt of 1-hydroxy-2-pyridine-thione]
LD50 (in vivo; species and route not given): 700 mg/kg
sensitivity to oxidation ([1]; mild oxidizing agents form 2,2'-dithio-bis(pyridine-1-oxide)): sensitive to oxidation
removal of dandruff after standardized washing (dandruff): dandruff still showed in many cases

On1ccccc1=S.[Na] [sodium-1-hydroxy-2-pyridine-thione]
dermal toxicity (skin): considerable dermal toxicity
stability to hydrolysis [1]: not stable to hydrolysis

Source: US4185106A, “Pyridones as antidandruff agents” (Hoechst Aktiengesellschaft, priority 1972, dated 1980)
